# Data as given in publication PMC12671168, “The signal peptide of staphylococcal protein A alters the multimeric states of PepV” (Microbiology Spectrum, 2025).
# “And” between values parts separate entries of the source, which are not always exact repeats. Equal values may be shown once. Peptide text beside a SMILES is read from it.
# T1: PepVEpi (Staphylococcus epidermidis, UniProt Q5HNF9)
# T1 construct: gene SERP1310; purified ortholog, probably His-tagged from E. coli BL21(DE3); multimers beyond dimer
# T1 sequence (Q5HNF9 1-469): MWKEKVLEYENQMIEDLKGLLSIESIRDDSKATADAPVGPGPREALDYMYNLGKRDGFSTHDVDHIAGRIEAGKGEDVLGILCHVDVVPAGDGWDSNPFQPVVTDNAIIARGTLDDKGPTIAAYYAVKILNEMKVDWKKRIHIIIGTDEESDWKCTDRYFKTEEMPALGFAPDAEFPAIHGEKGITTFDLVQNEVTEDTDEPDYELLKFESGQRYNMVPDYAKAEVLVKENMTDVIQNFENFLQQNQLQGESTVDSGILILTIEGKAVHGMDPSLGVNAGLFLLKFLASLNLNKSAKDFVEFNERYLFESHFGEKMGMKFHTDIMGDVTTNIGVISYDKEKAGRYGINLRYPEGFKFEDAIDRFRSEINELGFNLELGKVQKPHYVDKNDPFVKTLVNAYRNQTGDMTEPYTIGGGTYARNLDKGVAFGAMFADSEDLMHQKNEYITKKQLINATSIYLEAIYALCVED
# T2: PepVSpn (Streptococcus pneumoniae, UniProt A0A0H2UP69)
# T2 construct: gene pepV; purified ortholog, probably His-tagged from E. coli BL21(DE3); dimer only
# T2 sequence (A0A0H2UP69 1-466): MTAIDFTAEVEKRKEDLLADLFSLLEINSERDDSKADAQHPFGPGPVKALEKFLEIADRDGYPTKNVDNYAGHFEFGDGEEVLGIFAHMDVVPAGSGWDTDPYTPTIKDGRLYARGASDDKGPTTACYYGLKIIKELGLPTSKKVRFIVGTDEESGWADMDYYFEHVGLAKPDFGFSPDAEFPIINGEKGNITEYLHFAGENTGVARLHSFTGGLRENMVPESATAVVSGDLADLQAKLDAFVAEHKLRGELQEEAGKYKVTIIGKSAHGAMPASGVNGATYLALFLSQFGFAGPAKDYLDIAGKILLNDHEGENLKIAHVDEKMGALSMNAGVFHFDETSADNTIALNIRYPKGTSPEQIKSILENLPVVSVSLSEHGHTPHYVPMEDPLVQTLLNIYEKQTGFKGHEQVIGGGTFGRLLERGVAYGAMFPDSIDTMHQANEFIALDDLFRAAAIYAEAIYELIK
# T3: PepVBsub (Bacillus subtilis, UniProt O34944)
# T3 construct: gene ytjP; purified ortholog, probably His-tagged from E. coli BL21(DE3); multimers beyond dimer
# T3 sequence (O34944 1-463): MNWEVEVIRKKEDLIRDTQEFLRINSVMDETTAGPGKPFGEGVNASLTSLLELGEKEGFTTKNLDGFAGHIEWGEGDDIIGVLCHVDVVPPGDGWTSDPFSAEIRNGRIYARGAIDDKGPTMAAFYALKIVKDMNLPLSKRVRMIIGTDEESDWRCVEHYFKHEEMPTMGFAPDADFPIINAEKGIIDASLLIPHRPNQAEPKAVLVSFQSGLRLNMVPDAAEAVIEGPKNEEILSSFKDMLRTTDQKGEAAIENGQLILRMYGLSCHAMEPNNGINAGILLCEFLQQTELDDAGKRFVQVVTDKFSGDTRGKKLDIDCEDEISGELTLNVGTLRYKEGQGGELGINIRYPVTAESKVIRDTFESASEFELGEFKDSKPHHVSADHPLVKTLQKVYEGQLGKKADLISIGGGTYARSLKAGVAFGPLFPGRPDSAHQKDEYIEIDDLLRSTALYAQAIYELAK
# T4: PepV (staphylococcal PepV) (Staphylococcus aureus, UniProt Q5HF23)
# T4 construct: gene SACOL1801; His-tagged (pSY273, pET16b-H6-pepV), E. coli BL21(DE3), Ni-NTA; dimer, tetramer and higher oligomers
# T4 sequence (Q5HF23 1-469): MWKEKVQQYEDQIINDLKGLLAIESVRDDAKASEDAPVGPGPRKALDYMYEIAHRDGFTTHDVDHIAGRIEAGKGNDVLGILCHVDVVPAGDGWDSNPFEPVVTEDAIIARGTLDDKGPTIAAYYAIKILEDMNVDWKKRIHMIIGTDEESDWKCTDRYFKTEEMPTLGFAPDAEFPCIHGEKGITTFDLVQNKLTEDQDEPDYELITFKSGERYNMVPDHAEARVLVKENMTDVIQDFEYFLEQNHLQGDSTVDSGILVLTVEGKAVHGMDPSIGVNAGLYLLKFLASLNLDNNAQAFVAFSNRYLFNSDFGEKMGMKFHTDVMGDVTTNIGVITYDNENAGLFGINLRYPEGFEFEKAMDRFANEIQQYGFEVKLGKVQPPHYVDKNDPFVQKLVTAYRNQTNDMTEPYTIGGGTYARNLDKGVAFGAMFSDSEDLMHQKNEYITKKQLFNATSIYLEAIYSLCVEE
# B1: E. coli PepT (enzyme, Escherichia coli, UniProt P29745 1-408, looked up)
# chain: MDKLLERFLNYVSLDTQSKAGVRQVPSTEGQWKLLHLLKEQLEEMGLINVTLSEKGTLMATLPANVPGDIPAIGFISHVDTSPDCSGKNVNPQIVENYRGGDIALGIGDEVLSPVMFPVLHQLLGQTLITTDGKTLLGADDKAGIAEIMTALAVLQQKKIPHGDIRVAFTPDEEVGKGAKHFDVDAFDARWAYTVDGGGVGELEFENFNAASVNIKIVGNNVHPGTAKGVMVNALSLAARIHAEVPADESPEMTEGYEGFYHLASMKGTVERADMHYIIRDFDRKQFEARKRKMMEIAKKVGKGLHPDCYIELVIEDSYYNMREKVVEHPHILDIAQQAMRDCDIEPELKPIRGGTDGAQLSFMGLPCPNLFTGGYNYHGKHEFVTLEGMEKAVQVIVRIAELTAQRK
# notes: PepT of Escherichia coli, found with Foldseek as a protein structurally similar to PepV; The methods speak of recombinant His-tagged proteins from E. coli BL21(DE3); the construct of PepT is not described; also called Esherichia coli PepT; source: purified
# Assays:
# [1] = biological target: T1, PepVEpi; test: Cd-ninhydrin colorimetric dipeptidase assay, […] nm; type: biochemical; conditions: 25 mM Tris pH 7.5, 2 mM MnCl2, 5 mM TCEP, 37 °C
# [2] = biological target: T2, PepVSpn; test: Cd-ninhydrin colorimetric dipeptidase assay, […] nm; type: biochemical; conditions: 25 mM Tris pH 7.5, 2 mM MnCl2, 5 mM TCEP, 37 °C
# [3] = biological target: T3, PepVBsub; test: Cd-ninhydrin colorimetric dipeptidase assay, […] nm; type: biochemical; conditions: 25 mM Tris pH 7.5, 2 mM MnCl2, 5 mM TCEP, 37 °C
# [4] = biological target: T4, PepV (staphylococcal PepV); test: Cd-ninhydrin colorimetric dipeptidase assay, […] nm; type: biochemical; conditions: 25 mM Tris pH 7.5, 2 mM MnCl2, 5 mM TCEP, 37 °C
# [5] = biological target: PepV (Staphylococcus aureus), recombinant His-PepV (Staphylococcus aureus); test: native gel or EMSA; purified proteins, alone or mixed with peptide or precursor (0.5 µM PepV, 10-fold molar excess or rising concentrations of SpA SP); NativePAGE 4%-16% gel, 5 mA, 4°C, silver stain
# [6] = biological target: PepV (Staphylococcus aureus), recombinant His-PepV (Staphylococcus aureus); test: SEC; purified PepV alone or incubated with a 10-fold molar excess of peptide; Agilent SEC-3 or TSKgel Super2000 on HPLC; 0.5 M HEPES pH 7.6, 150 mM NaCl; 0.35 mL/min; absorbance at 280 nm
# [7] = biological target: the molecule itself; test: native gel or EMSA; purified proteins, alone or mixed with peptide or precursor (0.5 µM PepV, 10-fold molar excess or rising concentrations of SpA SP); NativePAGE 4%-16% gel, 5 mA, 4°C, silver stain
molecule,measurement,setting,value
C[C@H](N)C(=O)N[C@@H](C)C(=O)O [Ala-Ala] (H-Ala-Ala-OH),"Cd-ninhydrin colorimetric dipeptidase assay, 507 nm",[1],performed a colorimetric ninhydrin dipeptidase assay using Ala-Ala as the substrate
same,"Cd-ninhydrin colorimetric dipeptidase assay, 507 nm",[2],performed a colorimetric ninhydrin dipeptidase assay using Ala-Ala as the substrate
same,"Cd-ninhydrin colorimetric dipeptidase assay, 507 nm",[3],performed a colorimetric ninhydrin dipeptidase assay using Ala-Ala as the substrate
same,"Cd-ninhydrin colorimetric dipeptidase assay, 507 nm",[4],we assessed the enzymatic activity of PepV in the presence of the SpA SP
"PepV (Staphylococcus aureus), recombinant His-PepV (enzyme)",stoichiometry N,[5],2 and 4
same,stoichiometry N,[6],2 and 4
SpA SP (signal peptide of staphylococcal protein A),concentration of SpA SP at which the tetrameric and oligomeric PepV species diminish,[5],300 nM
B1,stoichiometry N,[7],4
